Assay results as given in BindingDB's records for doi:10.1021/jm049227l (Molecular Discovery, 2005).

Molecular target: Albumin (Homo sapiens, UniProt P02768)
Assay: Binding affinity towards human serum albumin

Sequence of Albumin (P02768 whole entry): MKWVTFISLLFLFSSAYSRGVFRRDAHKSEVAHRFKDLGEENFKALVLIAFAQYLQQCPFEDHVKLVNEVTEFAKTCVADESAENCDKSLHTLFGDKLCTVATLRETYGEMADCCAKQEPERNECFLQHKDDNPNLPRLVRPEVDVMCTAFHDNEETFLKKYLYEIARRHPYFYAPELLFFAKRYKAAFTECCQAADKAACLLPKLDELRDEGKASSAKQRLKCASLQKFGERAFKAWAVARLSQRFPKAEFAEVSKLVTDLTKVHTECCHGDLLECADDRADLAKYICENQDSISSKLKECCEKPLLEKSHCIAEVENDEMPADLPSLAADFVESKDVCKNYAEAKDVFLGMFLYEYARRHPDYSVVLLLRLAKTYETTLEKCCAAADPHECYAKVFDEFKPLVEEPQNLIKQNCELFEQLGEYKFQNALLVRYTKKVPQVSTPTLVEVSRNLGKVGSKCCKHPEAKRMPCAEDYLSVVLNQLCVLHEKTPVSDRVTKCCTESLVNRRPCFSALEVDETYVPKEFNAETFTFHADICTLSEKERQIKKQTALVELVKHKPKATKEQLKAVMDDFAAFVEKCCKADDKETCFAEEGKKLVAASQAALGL

SMILES	Association constant (Ka)	Ki
Cc1cc(CC(=O)O)n(C)c1C(=O)c1ccc(Cl)cc1	109000 M⁻¹	–
CS(=O)(=O)Nc1ccc([N+](=O)[O-])cc1Oc1ccccc1	–	15100 M⁻¹
O=C(O)c1cccc(-c2ccccc2)c1	251000 M⁻¹	–
Nc1cccc(-c2ccc(O)c(C(=O)O)c2)c1	2750 M⁻¹	–
CC(C)Cc1ccc([C@@H](C)C(=O)N[C@H](C)C(=O)O)cc1	39800 M⁻¹	–
NCc1ccc(-c2ccc(C(=O)O)cc2)cc1	1000 M⁻¹	–
CC(C)Cc1ccc([C@@H](C)C(=O)NCCCN(C)C)cc1	5010 M⁻¹	–
C[C@@H](C(=O)NCCCN1CCCC1)c1ccc(OS(=O)(=O)C(F)(F)F)cc1	2690 M⁻¹	–
O=C(O)c1cccc(-c2ccc(Cl)cc2Cl)c1	23900 M⁻¹	–
Nc1cccc(-c2cccc(C(=O)O)c2)c1	7760 M⁻¹	–
C[C@@H](C(=O)NCCN1CCCC1)c1ccc(OS(=O)(=O)C(F)(F)F)cc1	3890 M⁻¹	–
CC(C)Cc1ccc([C@@H](C)C(=O)NCCOCCO)cc1	8120 M⁻¹	–
CC(C)(C)c1ccc(O)c(C(=O)O)c1	20400 M⁻¹	–
CC(Cc1ccc([C@@H](C)C(=O)NS(C)(=O)=O)cc1)C(=O)O (stereo not given in full)	3890 M⁻¹	–
COc1ccc2c(c1)CN(c1ccc(C(C)C(=O)O)cc1)C2=O (stereo not given)	81200 M⁻¹	–
NCc1cc(-c2ccc(C(=O)O)cc2)ccc1F	1000 M⁻¹	–
O=C(O)c1cccc(-c2cc(C(F)(F)F)cc(C(F)(F)F)c2)c1	3090 M⁻¹	–
O=C(O)c1cccc(-c2cc(Cl)cc(Cl)c2)c1	5750 M⁻¹	–

SMILES	Association constant (Ka)	Ki
C[C@@H](C(N)=O)c1ccc(OS(=O)(=O)C(F)(F)F)cc1	19000 M⁻¹	–
Nc1ccc(-c2cccc(C(=O)O)c2)cc1	6160 M⁻¹	–
CC(C)c1ccc(O)c(C(=O)O)c1	26300 M⁻¹	–
CC(C(=O)O)c1ccc(-c2ccccc2)c(F)c1 (racemic) [2-(2-fluoro-[1,1'-biphenyl-4-yl])propanoic acid]	331000 M⁻¹	–
CC(C)NCC(O)c1ccc(NS(C)(=O)=O)cc1 (racemic) [Sotalol,(-)]	354 M⁻¹	–
CCCNC(=O)NS(=O)(=O)c1ccc(Cl)cc1 [1-(4-chlorophenylsulfonyl)-3-propylurea]	39800 M⁻¹	–
Cc1ccc(C(=O)c2ccc(CC(=O)O)n2C)cc1 [2-(1-methyl-5-(4-methylbenzoyl)-1H-pyrrol-2-yl)acetic acid]	416000 M⁻¹	–
O=C(O)c1cc(-c2ccccc2)ccc1O [2-Hydroxy-5-phenylbenzoic acid]	100000 M⁻¹	–
Oc1ccc(-c2ccccc2)cc1 [4-Hydroxybiphenyl]	9540 M⁻¹	–
O=C(O)c1cc(Cl)ccc1O [5-Chloro-2-hydroxy-benzoic acid]	21300 M⁻¹	–
CC(C)Cc1ccc([C@@H](C)C(=O)NS(C)(=O)=O)cc1 [(R)-2-(4-isobutylphenyl)-N-(methylsulfonyl)propanamide]	1.65e+06 M⁻¹	–
O=C(O)c1ccc(-c2ccccc2)cc1 [Biphenyl-4-carboxylic acid]	199000 M⁻¹	–
Cc1ccc(S(=O)(=O)NC(=O)NN2CCCCCC2)cc1 [CHEBI:9613]	53700 M⁻¹	–
C[C@@H](C(=O)NS(C)(=O)=O)c1ccc(OS(=O)(=O)C(F)(F)F)cc1 [DF-2156A]	831000 M⁻¹	–
NS(=O)(=O)c1cc2c(cc1Cl)NCNS2(=O)=O [JFD00715]	2290 M⁻¹	–
CC1=C(CC(=O)O)c2cc(F)ccc2/C1=C\c1ccc([S+](C)[O-])cc1 (stereo not given) [Sulindac]	26300 M⁻¹	–
O=C(c1ccccc1)c1ccc2n1CCC2C(=O)O (stereo not given) [Toradol]	208000 M⁻¹	–
